One experiment has as its target human CB2 receptors (Homo sapiens (Human), UniProt P34972). Put plainly: functional cAMP assay, CB2. The class given is cell-based. As to the method: (§1) CHO cells expressing human CB1 or CB2 receptors are seeded 17-24 hours prior to the experiment 50.000 cells per well in a black 96 well plate with flat clear bottom (Corning Costar #3904) in DMEM (Invitrogen No. 31331), 1×HT supplement, with 10% fetal calf serum and incubated at 5% CO2 and 37° C. in a humidified incubator. The growth medium was exchanged with Krebs Ringer Bicarbonate buffer with 1 mM IBMX and incubated at 30° C. for 30 min. Compounds were added to a final assay volume of 100 μl and incubated for 30 min at 30° C. Using the cAMP-Nano-TRF detection kit the assay (Roche Diagnostics) was stopped by the addition of 50 μl lysis reagent (Tris, NaCl, 1.5% Triton X100, 2.5% NP40, 10% NaN3) and 50 μl detection solutions (20 μM mAb Alexa700-cAMP 1:1, and 48 μM Ruthenium-2-AHA-cAMP) and shaken for 2 h at room temperature. The time-resolved energy transfer is measured by a TRF reader (Evotec Technologies GmbH), equipped with a ND:YAG laser as excitation source. The plate is measured twice with the excitation at 355 nm and at the emission with a delay of 100 ns and a gate of 100 ns, total exposure time 10s at 730 (bandwidth 30 nm) or 645 nm (bandwidth 75 nm), respectively. The FRET signal is calculated as follows: FRET=T730-Alexa730-P(T645-B645) with P=Ru730-B730/Ru645-B645, where T730 is the test well measured at […], T645 is the test well measured at 645 nm, B730 and B645 are the buffer controls at 730 nm and 645 nm, respectively. cAMP content is determined from the function of a standard curve spanning from 10 μM to 0.13 nM cAMP.
(§2) EC50 values were determined using Activity Base analysis (ID Business Solution, Limited). The EC50 values for a wide range of cannabinoid agonists generated from this assay were in agreement with the values published in the scientific literature.

The next experiment concerns the target human CB1 receptors (Homo sapiens (Human), UniProt P21554). Put plainly: functional cAMP assay, CB1. Format: cell-based. As to the method: as §1, §2
[1] abbreviates: functional cAMP assay, CHO cells expressing human CB2, read-out: human CB2 EC50.
The mark [2] stands for this setting: functional cAMP assay, CHO cells expressing human CB1, read-out: human CB1 EC50.

Where two headings read alike, the source gives them in different places.

human CB1 receptors, sequence (P21554 whole entry): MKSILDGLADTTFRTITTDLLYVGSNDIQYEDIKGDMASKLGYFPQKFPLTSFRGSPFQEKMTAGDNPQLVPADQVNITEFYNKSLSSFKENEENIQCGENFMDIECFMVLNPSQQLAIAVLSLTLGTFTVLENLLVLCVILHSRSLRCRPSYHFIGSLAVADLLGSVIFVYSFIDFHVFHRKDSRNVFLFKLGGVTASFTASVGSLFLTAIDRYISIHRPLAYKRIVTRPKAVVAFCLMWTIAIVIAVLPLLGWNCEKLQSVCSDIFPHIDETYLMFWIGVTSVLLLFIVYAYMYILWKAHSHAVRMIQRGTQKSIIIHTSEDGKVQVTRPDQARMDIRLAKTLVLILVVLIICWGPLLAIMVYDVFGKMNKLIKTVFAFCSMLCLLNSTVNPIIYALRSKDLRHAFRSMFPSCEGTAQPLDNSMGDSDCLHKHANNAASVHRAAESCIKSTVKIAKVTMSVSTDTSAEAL
human CB2 receptors, sequence (P34972 whole entry): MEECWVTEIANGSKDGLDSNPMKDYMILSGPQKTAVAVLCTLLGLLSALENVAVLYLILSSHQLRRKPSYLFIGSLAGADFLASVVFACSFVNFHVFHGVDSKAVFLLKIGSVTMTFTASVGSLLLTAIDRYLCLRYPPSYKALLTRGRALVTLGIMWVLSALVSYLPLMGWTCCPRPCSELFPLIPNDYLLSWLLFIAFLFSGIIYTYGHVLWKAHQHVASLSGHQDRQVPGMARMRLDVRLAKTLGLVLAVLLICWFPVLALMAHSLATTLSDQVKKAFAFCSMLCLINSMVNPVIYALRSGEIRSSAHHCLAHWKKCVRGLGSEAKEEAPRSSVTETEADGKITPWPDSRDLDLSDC

As for `Cc1nc([C@@H](NC(=O)c2cnc(C3CC3)c(OCC3CC3)n2)C2CC2)no1` (stereo in doubt) [Example 40, 5-Cyclopropyl-6-cyclopropylmethoxy-pyrazine-2-carboxylic acid [(SR)-cyclopropyl-(5-methyl-[1,2,4]oxadiazol-3-yl)-methyl]-amide], the EC50 at human CB2 receptors is 30.8 nM; on human CB1 receptors it was over 10000 nM. For `Cc1nc([C@H](NC(=O)c2cnc(C3CC3)c(OCC3CC3)n2)C2CC2)no1` (stereo in doubt) [Example 41, 5-Cyclopropyl-6-cyclopropylmethoxy-pyrazine-2-carboxylic acid [(RS)-cyclopropyl-(5-methyl-[1,2,4]oxadiazol-3-yl)-methyl]-amide], the EC50 was 518 nM on human CB2 receptors and over 10000 nM on human CB1 receptors. With `Cc1nc([C@@H](NC(=O)c2cnc(N3CC(F)(F)C3)c(OCC3CC3)n2)C2CC2)no1` (stereo in doubt) [Example 42, 6-Cyclopropylmethoxy-5-(3,3-difluoro-azetidin-1-yl)-pyrazine-2-carboxylic acid [(SR)-cyclopropyl-(5-methyl-[1,2,4]oxadiazol-3-yl)-methyl]-amide], the half-maximal effective concentration (EC50) at human CB2 receptors was 28 nM; on human CB1 receptors, over 10000 nM. Regarding `Cc1nc([C@H](NC(=O)c2cnc(N3CC(F)(F)C3)c(OCC3CC3)n2)C2CC2)no1` (stereo in doubt) [Example 43, 6-Cyclopropylmethoxy-5-(3,3-difluoro-azetidin-1-yl)-pyrazine-2-carboxylic acid [(RS)-cyclopropyl-(5-methyl-[1,2,4]oxadiazol-3-yl)-methyl]-amide], the results for the concentration for a half-maximal effect (EC50) on human CB2 receptors and on human CB1 receptors were 40.9 nM and over 10000 nM, respectively. For `Cc1nc(C(C)(C)NC(=O)c2cnc(C3CC3)c(-c3cccc(Cl)c3)n2)no1` [Example 1, 6-(3-Chloro-phenyl)-5-cyclopropyl-pyrazine-2-carboxylic acid [1-methyl-1-(5-methyl-[1,2,4]oxadiazol-3-yl)-ethyl]amide], the EC50 on human CB2 receptors (setting [1]) was found to be 88.1 nM; at human CB1 receptors (setting [2]), 1150 nM. On to `CC(C)(C#N)NC(=O)c1cnc(C2CC2)c(-c2cccc(Cl)c2)n1` [Example 2, 6-(3-Chloro-phenyl)-5-cyclopropyl-pyrazine-2-carboxylic acid (cyano-dimethyl-methyl)-amide], for which the EC50 on human CB2 receptors (setting [1]) is 104 nM; on human CB1 receptors (setting [2]), over 10000 nM. For the compound `Cc1nc(C2(NC(=O)c3cnc(C4CC4)c(-c4cccc(Cl)c4)n3)CCC2)no1` [Example 3, 6-(3-Chloro-phenyl)-5-cyclopropyl-pyrazine-2-carboxylic acid [1-(5-methyl-[1,2,4]oxadiazol-3-yl)-cyclobutyl]-amide], the half-maximal effective concentration (EC50) is 156 nM at human CB2 receptors (setting [1]) and over 10000 nM on human CB1 receptors (setting [2]). The corresponding values for `Cc1nc(C(C)(C)NC(=O)c2cnc(N3CC(F)(F)C3)c(-c3cccc(Cl)c3)n2)no1` [Example 4, 6-(3-Chloro-phenyl)-5-(3,3-difluoro-azetidin-1-yl)-pyrazine-2-carboxylic acid [1-methyl-1-(5-methyl-[1,2,4]oxadiazol-3-yl)-ethyl]-amide] are 108 nM and over 10000 nM. In the same order, the values of `Cc1nc(C(C)(C)NC(=O)c2cnc(N3CCC3)c(-c3cccc(Cl)c3)n2)no1` [Example 5, 5-Azetidin-1-yl-6-(3-chloro-phenyl)-pyrazine-2-carboxylic acid [1-methyl-1-(5-methyl-[1,2,4]oxadiazol-3-yl)-ethyl]-amide] are 140 nM and over 10000 nM. Regarding `CC(C)(NC(=O)c1cnc(C2CC2)c(-c2cccc(Cl)c2)n1)c1nccs1` [Example 6, 6-(3-Chloro-phenyl)-5-cyclopropyl-pyrazine-2-carboxylic acid (1-methyl-1-thiazol-2-yl-ethyl)-amide], the figures for the EC50 at human CB2 receptors (setting [1]) and at human CB1 receptors (setting [2]) were 48 nM and 892 nM, respectively. In the same order, the values of `O=C(NN1CCCCC1)c1cnc(C2CC2)c(-c2cccc(Cl)c2)n1` [Example 7, 6-(3-Chloro-phenyl)-5-cyclopropyl-pyrazine-2-carboxylic acid piperidin-1-ylamide] are 255 nM and over 10000 nM. The corresponding values for `CNC(=O)[C@@H](NC(=O)c1cnc(N2CC(F)(F)C2)c(OCC2CC2)n1)C(C)(C)C` [Example 8, 6-Cyclopropylmethoxy-5-(3,3-difluoro-azetidin-1-yl)-pyrazine-2-carboxylic acid ((S)-2,2-dimethyl-1-methylcarbamoyl-propyl)-amide] are 18.5 nM and over 10000 nM.

For `Cc1nc(C2(NC(=O)c3cnc(N4CC(F)(F)C4)c(OCC4CC4)n3)CCC2)no1` [Example 9, 6-Cyclopropylmethoxy-5-(3,3-difluoro-azetidin-1-yl)-pyrazine-2-carboxylic acid [1-(5-methyl-[1,2,4]oxadiazol-3-yl)-cyclobutyl]-amide], the figures for the concentration for a half-maximal effect (EC50) at human CB2 receptors (setting [1]) and on human CB1 receptors (setting [2]) were 87.9 nM and 1290 nM, respectively. On to `CC(C)(CCO)NC(=O)c1cnc(C2CC2)c(OCC2CC2)n1` [Example 10, 5-Cyclopropyl-6-cyclopropylmethoxy-pyrazine-2-carboxylic acid (3-hydroxy-1,1-dimethyl-propyl)-amide], for which the half-maximal effective concentration (EC50) is 257 nM on human CB2 receptors (setting [1]) and over 10000 nM on human CB1 receptors (setting [2]). With `O=C(NC1(CO)CCC1)c1cnc(C2CC2)c(OCC2CC2)n1` [Example 11, 5-Cyclopropyl-6-cyclopropylmethoxy-pyrazine-2-carboxylic acid (1-hydroxymethyl-cyclobutyl)-amide], the results for the concentration for a half-maximal effect (EC50) on human CB2 receptors (setting [1]) and on human CB1 receptors (setting [2]) were 124 nM and 3320 nM, respectively. With `Cc1nc(C2(NC(=O)c3cnc(C4CC4)c(OCC4CC4)n3)CCC2)no1` [Example 12, 5-Cyclopropyl-6-cyclopropylmethoxy-pyrazine-2-carboxylic acid [1-(5-methyl-[1,2,4]oxadiazol-3-yl)-cyclobutyl]-amide], the concentration for a half-maximal effect (EC50) is 85.2 nM on human CB2 receptors (setting [1]) and over 10000 nM on human CB1 receptors (setting [2]). In the same order, the values of `CCC(C)(CO)NC(=O)c1cnc(C2CC2)c(OCC2CC2)n1` (stereo not shown) [Example 13, 5-Cyclopropyl-6-cyclopropylmethoxy-pyrazine-2-carboxylic acid (1-hydroxymethyl-1-methyl-propyl)-amide] are 63.4 nM and over 10000 nM. The corresponding values for `CNC(=O)[C@@H](NC(=O)c1cnc(C2CC2)c(OCC2CC2)n1)C(C)(C)C` [Example 14, 5-Cyclopropyl-6-cyclopropylmethoxy-pyrazine-2-carboxylic acid ((S)-2,2-dimethyl-1-methylcarbamoyl-propyl)-amide] are 6.8 nM and 155 nM.

For `Cc1nc([C@](C)(CC2CC2)NC(=O)c2cnc(N3CC(F)(F)C3)c(OCC3CC3)n2)no1` [Example 78, (+)-6-Cyclopropylmethoxy-5-(3,3-difluoro-azetidin-1-yl)-pyrazine-2-carboxylic acid [2-cyclopropyl-1-methyl-1-(5-methyl-[1,2,4]oxadiazol-3-yl)-ethyl]-amide], at human CB2 receptors (setting [1]), the EC50 stood at 17.4 nM.

Turning to `Cc1nc([C@@](C)(CC2CC2)NC(=O)c2cnc(N3CC(F)(F)C3)c(OCC3CC3)n2)no1` [Example 79, (−)-6-Cyclopropylmethoxy-5-(3,3-difluoro-azetidin-1-yl)-pyrazine-2-carboxylic acid [2-cyclopropyl-1-methyl-1-(5-methyl-[1,2,4]oxadiazol-3-yl)-ethyl]-amide], the EC50 on human CB2 receptors (setting [1]) is 4 nM. The same measure, in the same setting: as for `NC(=O)[C@@H]1CCCC[C@@H]1NC(=O)c1cnc(C2CC2)c(OCC2CC2)n1` [Example 82], the figure is 257 nM; as for `NC(=O)[C@H]1CCCC[C@H]1NC(=O)c1cnc(C2CC2)c(OCC2CC2)n1` [Example 83], 44.4 nM.

For the origin of these results see patent US9403808B2, “Pyrazine derivatives” (Hoffmann-La Roche Inc., priority 2011, dated 2016).
